{"source": "paper PMC7272100", "about": "(PLoS ONE, 2020)", "molecules": {"B1": {"name": "Peptide 1 (HIV-TAT + S100A1 derived peptide) (peptide)", "peptide": "YGRKKRRQRRRVVLVAALTVACNNFFWE", "notes": "HIV-TAT cell-penetrating segment derived from the TAT protein of human immunodeficiency virus; S100A1, human, C-terminal residues 76 to 92 (17 residues); 28 residues; the TAT segment stands N-terminal of the S100A1 stretch; also called fusion peptide; source: synthetic peptide, bought: Kelowna International Scientific Inc., >= 95% purity"}}, "key": {"[1]": {"assay": "Stability of peptides in cells (inferred from WST-1 assay)", "settings": "deduced from WST-1 results after 48 hours of incubation"}, "[2]": {"system": "p53 transactivation domain (residues, 1–57)", "settings": "fluorescence anisotropy; ref [50]; cited from earlier work", "description": "(§1) With a helix–loop–helix pattern, these proteins are site-specific and form homo and heterodimers. These proteins interact with copper, zinc, and calcium ions, and calcium-binding facilitates a variety of extracellular and intracellular governing consequences of these proteins. […] Further, it was also found to connect with the p53 tetrameriza ..."}, "[3]": {"system": "p53 peptide (residues, 367–393)", "settings": "ref [49]; cited from earlier work", "description": "as §1"}, "[4]": {"system": "p53 tetramerization domain (residues, 325–355)", "settings": "ref [49]; cited from earlier work", "description": "as §1"}, "[5]": {"system": "MDM2 N- terminal domain (2–125)", "settings": "ref [52]; cited from earlier work", "description": "as §1"}, "[6]": {"system": "C-terminal domain (residues, 293–393)", "settings": "monomeric fragment versus tetrameric form; ref [50]; cited from earlier work", "description": "as §1"}, "[7]": {"system": "phosphorylated p53 N-terminus", "settings": "single-site phosphorylation, fluorescence anisotropy; ref [51]; cited from earlier work", "description": "as §1"}, "[8]": {"system": "MDM2 (17–125)", "settings": "p53 (1–73), besides helix region (18–26); ref [70]; cited from earlier work"}, "[9]": {"system": "MDM2-p53 complex", "assay": "HSQC-NMR competitive binding experiment", "design": "species or system human", "settings": "unlabeled p53 added to 15N-labeled MDM2, 1:1, pH 7.2", "experimental": "HSQC- NMR competitive binding experiment\nAll the experiments were carried out in the NMR buffer containing 20 mM Tris-HCl, 15 mM NaCl, 20 mM CaCl2, 20 mM DTT, 0.1% NaN3, and 10% D2O; pH 7.2."}, "[10]": {"settings": "HIV-TAT alone; ref [79]; cited from earlier work", "description": "[79] […] The (LLKK)3 imparts an amphiphilic α-helical conformation to the peptide that disrupts the cellular membranes. […] [81] Altogether it can be inferred that the TAT sequence has a very minimal effect to the confirmation of the conjugated partner under consideratio ..."}, "[11]": {"settings": "ref [77]; cited from earlier work", "description": "We selected residues from 76 to 92 (17 residues) for our peptide construction."}, "[12]": {"system": "various cell lines including MCF-7", "design": "method as in PMID 19914216", "settings": "ref [85], cited from earlier work"}, "[13]": {"system": "HeLa cells", "settings": "N-terminal fluorescein tagged, even after five hours; ref [86]; cited from earlier work", "description": "[86] […] [85] […] [ ..."}, "[14]": {"biological_target": "T1, p53-TAD (residues 1-73), N-terminal domain of p53 (UniProt P04637 1-73)", "T1 construct": "cleaved protein of 8.6 kDa; plasmid a gift of G. Daughdrill; Used unlabelled or 15N-labelled; also called p53 (1-73); p53 N-terminal domain; source: bacterial cells in M9 media, purified (Ni-NTA, thrombin digestion, Superdex 75)", "T1 sequence (P04637 1-73)": "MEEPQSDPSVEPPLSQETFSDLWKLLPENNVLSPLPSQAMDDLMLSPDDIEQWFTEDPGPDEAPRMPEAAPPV", "assay": "other fluorescence titration; tryptophan fluorescence of p53 (1-73), excitation 295 nm; Peptide 1 0 to 12.0 uM added to 2 uM p53; 20 mM Tris-HCl, 15 mM NaCl, 20 mM CaCl2, 20 mM DTT, 0.1% NaN3, pH 7.2", "settings": "both partners purified"}}}
{"molecule": "CC(C)C[C@H](NC(=O)[C@H](C)NC(=O)[C@H](C)NC(=O)[C@@H](NC(=O)[C@H](CC(C)C)NC(=O)[C@@H](NC(=O)[C@@H](NC(=O)[C@H](CCCNC(=N)N)NC(=O)[C@H](CCCNC(=N)N)NC(=O)[C@H](CCCNC(=N)N)NC(=O)[C@H](CCC(N)=O)NC(=O)[C@H](CCCNC(=N)N)NC(=O)[C@H](CCCNC(=N)N)NC(=O)[C@H](CCCCN)NC(=O)[C@H](CCCCN)NC(=O)[C@H](CCCNC(=N)N)NC(=O)CNC(=O)[C@@H](N)Cc1ccc(O)cc1)C(C)C)C(C)C)C(C)C)C(=O)N[C@H](C(=O)N[C@H](C(=O)N[C@@H](C)C(=O)N[C@@H](CS)C(=O)N[C@@H](CC(N)=O)C(=O)N[C@@H](CC(N)=O)C(=O)N[C@@H](Cc1ccccc1)C(=O)N[C@@H](Cc1ccccc1)C(=O)N[C@@H](Cc1c[nH]c2ccccc12)C(=O)N[C@@H](CCC(=O)O)C(=O)O)C(C)C)[C@@H](C)O", "note": "[Peptide 1]", "values": [{"measurement": "stability in cells", "setting": "[1]", "value": "quite stable"}]}
{"molecule": "S100A1: human S100A1 protein produced in BL21 (DE3) E. coli [Peptide S100A1]", "values": [{"measurement": "binding to p53 transactivation domain (1–57)", "setting": "[2]", "value": "binding of S100A1 to the p53 transactivation domain (residues, 1–57)"}, {"measurement": "association with p53 peptide (367–393)", "setting": "[3]", "value": "found to associate with the p53 peptide (residues, 367–393)"}, {"measurement": "interaction with p53 TET domain (325–355)", "setting": "[4]", "value": "only interacted with the TET domain when its oligomerization state was lowered (monomers or dimers)"}, {"measurement": "association with MDM2 N-terminal domain (2–125)", "setting": "[5]", "value": "found to associate with the MDM2 N- terminal domain (2–125) and does not lead to the formation of a ternary complex with MDM2 and p53"}, {"measurement": "binding to p53 C-terminal domain (293–393)", "setting": "[6]", "value": "could bind to the monomeric fragment of the C-terminal domain (residues, 293–393) but unable to form a complex with the tetrameric form"}, {"measurement": "affinity of phosphorylated p53 N-terminus for S100A1", "setting": "[7]", "value": "increased affinity for S100A1"}]}
{"molecule": "p53 (1–73): p53-TAD (residues, 1–73)", "values": [{"measurement": "p53 regions able to bind to MDM2", "setting": "[8]", "value": "nascent turns 1 (40–45) and 2 (49–54) are furthermore able to bind to MDM2"}, {"measurement": "effect on 15N labeled MDM2 HSQC peaks", "setting": "[9]", "value": "several ^15N labeled MDM2 peaks were shifted and/or disappeared"}]}
{"molecule": "YGRKKRRQRRR [TAT peptide]", "values": [{"measurement": "conformation by CD spectrum", "setting": "[10]", "value": "unstructured form"}, {"measurement": "delivery of heterologous proteins", "setting": "[11]", "value": "cytoplasmic delivery of heterologous proteins which was independent of the cell type"}, {"measurement": "cytotoxicity of TAT peptide, above 5 μM", "setting": "[12]; above 5 μM", "value": "11–22%"}, {"measurement": "cytotoxicity of TAT peptide, up to 5 μM", "setting": "[12]; up to 5 μM", "value": "non-toxic"}, {"measurement": "stability of TAT peptide (cytoplasmic fluorescence)", "setting": "[13]", "value": "quite stable"}]}
{"molecule": "B1", "values": [{"measurement": "Kd", "setting": "[14]", "value": "~590", "unit": "nM"}]}
